The text below walks through data of patent publication US20170209445A1, “KINASE INHIBITORS” (Respivert Limited, priority 2014, published 2017).

One data set has as its target T1, Lck (Homo sapiens, UniProt P06239).
T1 construct: purchased DiscoveRx Corporation (LeadHunter Discover Services, KINOMEscan)
Briefly: KINOMEscan dissociation constant, Lck. Type of data set: binding. As for the experimental part: (§1) Kinase enzyme binding activities of compounds disclosed herein may be determined using a proprietary assay which measures active site-directed competition binding to an immobilized ligand (Fabian, M. A. et al., Nature Biotechnol., 2005, 23:329-336). These assays may be conducted by DiscoverX (formerly Ambit; San Diego, Calif.). The percentage inhibition produced by incubation with a test compound may be calculated relative to the non-inhibited control.

Data set [1] has as its target T2, p38 MAPKα (Homo sapiens, UniProt Q16539).
T2 construct: purchased Invitrogen
Briefly: KINOMEscan dissociation constant, p38 MAPKα. Type of data set: binding. The procedure:
as §1

Data set [2] concerns the target T3, Syk (Homo sapiens, UniProt P43405).
T3 construct: purchased Invitrogen
Briefly: KINOMEscan dissociation constant, Syk. Type of data set: binding. As for the experimental part: as §1

The target in data set [3] is T2, p38 MAPKα. Briefly: p38 MAPKα enzyme inhibition (Method 2), FRET Z-LYTE. In kind it is biochemical. As for the experimental part: (§2) The enzyme inhibitory activities of compounds disclosed herein are determined by FRET using synthetic peptides labelled with both donor and acceptor fluorophores (Z-LYTE, Invitrogen Ltd., Paisley, UK).
The inhibitory activities of test compounds against the p38 MAPKα isoform (MAPK14: Invitrogen), are evaluated indirectly by determining the level of activation/phosphorylation of the down-stream molecule, MAPKAP-K2. The p38 MAPKα protein (80 ng/mL, 2.5 μL) is mixed with the test compound (2.5 μL of either 4 μg/mL, 0.4 μg/mL, 0.04 μg/mL or 0.004 μg/mL) for 2 hr at RT. […] The mixture is incubated for 1 hr at RT. Development reagent (protease, 5 μL) is added for 1 hr prior to detection in a fluorescence microplate reader (Varioskan® Flash, ThermoFisher Scientific).
This method follows the same steps as Method 1 above, but utilises a higher concentration of the p38 MAPKα protein (2.5 μL of 200 ng/mL protein instead of 2.5 μL of 80 ng/mL protein) for mixing with the test compound.
(§3) In all cases, the site-specific protease cleaves non-phosphorylated peptide only and eliminates the FRET signal. Phosphorylation levels of each reaction are calculated using the ratio of coumarin emission (donor) over fluorescein emission (acceptor), for which high ratios indicate high phosphorylation and low ratios indicate low phosphorylation levels.

A further data set deals with T4, c-Src (Homo sapiens, UniProt P12931).
T4 construct: purchased Invitrogen
Briefly: c-Src enzyme inhibition, FRET Z-LYTE. In kind it is biochemical. As for the experimental part:
as §2
(§4) The inhibitory activities of compounds of the invention against c-Src and Syk enzymes (Invitrogen), are evaluated in a similar fashion to that described hereinabove. The relevant enzyme (3000 ng/mL or 2000 ng/mL respectively, 2.5 μL) is incubated with the test compound (either 4 μg/mL, 0.4 μg/mL, 0.04 μg/mL, or 0.004 μg/mL, 2.5 μL each) for 2 hr at RT. The FRET peptides (8 μM, 2.5 μL), and appropriate ATP solutions (2.5 μL, 800 μM for c-Src, and 60 μM ATP for Syk) are then added to the enzymes/compound mixtures and incubated for 1 hr. Development reagent (protease, 5 μL) is added for 1 hr prior to detection in a fluorescence microplate reader (Varioskan® Flash, ThermoFisher Scientific).
as §3

Data set [4] deals with T3, Syk. Briefly: Syk enzyme inhibition, FRET Z-LYTE. Type of data set: biochemical. The procedure: as §2, §4, §3
In the next data set the target is T5, GSK3α (Homo sapiens, UniProt P49840).
T5 construct: purchased Invitrogen
Briefly: GSK3α enzyme inhibition (Method 2), FRET Z-LYTE. Type of data set: biochemical. The procedure: as §2
The inhibitory activities of compounds of the invention against the GSK 3α enzyme isoform (Invitrogen), are evaluated by determining the level of activation/phosphorylation of the target peptide. The GSK3-α protein (500 ng/mL, 2.5 μL) is mixed with the test compound (2.5 μL at either 4 μg/mL, 0.4 μg/mL, 0.04 μg/mL, or 0.004 μg/mL) for 2 hr at RT. The FRET peptide (8 μM, 2.5 μL), which is a phosphorylation target for GSK3α, and ATP (40 μM, 2.5 μL) are then added to the enzyme/compound mixture and the resulting mixture incubated for 1 hr. Development reagent (protease, 5 μL) is added for 1 hr prior to detection in a fluorescence microplate reader (Varioskan® Flash, ThermoFisher Scientific).
as §3
This method follows the same steps as Method 1 above, but utilises a shorter period of mixing of the test compound (105 minutes instead of 2 hours) with the GSK3-α protein.

The subject of data set [5] is PBMCs. Briefly: LPS-induced IL-8 release in PBMC cells. Type of data set: cell-based. The note with it: Homo sapiens, LPS-stimulated PBMCs, read-out: IC50 Values for Inhibition of Cytokine Release PBMCs IL-8. A digest of the protocol:
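Healthy-donor PBMCs isolated by density gradient were pretreated with compound for 2 h, then stimulated with 1 ng/mL LPS (E. coli 0111:B4) for 24 h at 37° C., 5% CO2. IL-8 and TNFα in supernatants measured by sandwich ELISA.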

The subject of data set [6] is PBMCs. Briefly: IL-2 release in CD3/CD28 stimulated PBMC cells. Type of data set: cell-based. The settings on record: Homo sapiens, read-out: IC50 Values for Inhibition of Cytokine Release PBMCs IL-2. The procedure: (§5) PBMCs from healthy subjects are separated from whole blood using a density gradient (Lymphoprep, Axis-Shield Healthcare). Cells are added to a 96 well plate pre-coated with a mixture of CD3/CD28 monoclonal antibodies (0.3 μg/mL eBioscience and 3 μg/mL BD Pharmingen respectively). Compound at the desired concentration is then added to the wells and the plate left for 3 days under normal tissue culture conditions. Supernatants are harvested and IL-2 and IFN gamma release determined by Sandwich ELISA (Duo-set, R&D System). The IC50 is determined from the dose response curve.

In data set [7] the test system is PBMCs. Briefly: IFN gamma release in CD3/CD28 stimulated PBMC cells. The settings on record: Homo sapiens, read-out: IC50 Values for Inhibition of Cytokine Release PBMCs IFNγ. In kind it is cell-based. The procedure: as §5
A further data set relates to HT29 cells. Briefly: IL-1β-induced IL-8 release in HT29 cells. The settings on record: Homo sapiens, HT-29; IL-1β-stimulated HT29 cells; read-out: IC50 Values for Inhibition of Cytokine Release HT29 cells IL-8. Type of data set: cell-based. The procedure: HT29 cells, a human colon adenocarcinoma cell line, are plated in a 96 well plate (24 hrs) and pre-treated with compounds at the desired concentration for 2 hours before addition of 5 ng/mL of IL-1β (Abcam) for 24 hours. Supernatants are harvested for IL-8 quantification by Sandwich ELISA (Duo-set, R&D System). The IC50 is determined from the dose response curve.

Data set [8] can be described thus: Hydrolytic stability study. In kind it is physicochemical. The settings on record: DMSO/water (3:1), 1 mg/mL, experiment in which Example 2 was tested. The procedure:
Chemical stability of compounds of the invention was assessed in a mixture of DMSO and water (3:1) at a test compound concentration of 1 mg/mL
General HPLC Procedure • Agilent, Waters X-Select C18, 2.5 μm, 4.6×30 mm column, 4 min method, 5-95% • MeCN/water (0.1% formic acid). • Flow rate 2.5 ml/min. • Column Oven Temperature 40° C. • Detection 254 nm.
Sample Preparation • A 1.0 mg sample of test compound was dissolved in 1 mL of DMSO/water (3:1) and the resulting mixture was stirred at rt overnight.
Recording Stability • A 50 μL aliquot of the test solution was removed and analysed in duplicate by 5 μL HPLC injections. The peak area for the test compound (taken to be 100% product, 0% degradation) was recorded following manual integration of the corresponding UV trace. The area retention time was also recorded. • The test solution was heated to 60° C. internal temperature (65° C. block temperature), with stirring, and timing commenced once the target temperature had been reached. After 5 and 24 h, samples were removed and analysed by HPLC (5 μL injections). In all cases, 5 μL injections were used and the samples analysed in duplicate. • The peak areas for the test compounds were recorded at both subsequent timepoints and the % decomposition calculated from the % change in peak area over time.

A value given as a limit tells only on which side of the number the result lay.

T2 sequence (Q16539 whole entry): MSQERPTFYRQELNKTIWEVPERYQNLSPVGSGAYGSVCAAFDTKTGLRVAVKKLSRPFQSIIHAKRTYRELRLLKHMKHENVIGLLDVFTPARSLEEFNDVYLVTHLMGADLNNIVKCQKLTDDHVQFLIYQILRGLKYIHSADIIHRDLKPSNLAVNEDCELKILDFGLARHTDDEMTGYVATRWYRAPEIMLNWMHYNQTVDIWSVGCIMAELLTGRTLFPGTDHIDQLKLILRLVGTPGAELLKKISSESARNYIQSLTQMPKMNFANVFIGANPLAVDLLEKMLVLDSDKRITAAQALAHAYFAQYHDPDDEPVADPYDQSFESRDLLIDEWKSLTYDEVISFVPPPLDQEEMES
T5 sequence (P49840 whole entry): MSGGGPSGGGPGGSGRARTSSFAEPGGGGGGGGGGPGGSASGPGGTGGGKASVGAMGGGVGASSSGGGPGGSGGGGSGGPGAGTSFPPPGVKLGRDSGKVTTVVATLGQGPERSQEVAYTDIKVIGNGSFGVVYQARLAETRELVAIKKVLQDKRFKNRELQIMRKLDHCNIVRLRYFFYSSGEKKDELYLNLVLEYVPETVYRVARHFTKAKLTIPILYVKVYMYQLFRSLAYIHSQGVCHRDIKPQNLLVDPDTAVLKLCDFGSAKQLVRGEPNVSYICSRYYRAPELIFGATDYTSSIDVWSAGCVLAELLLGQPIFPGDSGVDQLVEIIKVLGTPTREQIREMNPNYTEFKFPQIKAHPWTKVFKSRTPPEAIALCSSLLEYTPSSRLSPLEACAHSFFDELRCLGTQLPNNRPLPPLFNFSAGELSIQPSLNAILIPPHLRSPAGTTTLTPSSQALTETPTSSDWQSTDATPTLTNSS
T1 sequence (P06239 whole entry): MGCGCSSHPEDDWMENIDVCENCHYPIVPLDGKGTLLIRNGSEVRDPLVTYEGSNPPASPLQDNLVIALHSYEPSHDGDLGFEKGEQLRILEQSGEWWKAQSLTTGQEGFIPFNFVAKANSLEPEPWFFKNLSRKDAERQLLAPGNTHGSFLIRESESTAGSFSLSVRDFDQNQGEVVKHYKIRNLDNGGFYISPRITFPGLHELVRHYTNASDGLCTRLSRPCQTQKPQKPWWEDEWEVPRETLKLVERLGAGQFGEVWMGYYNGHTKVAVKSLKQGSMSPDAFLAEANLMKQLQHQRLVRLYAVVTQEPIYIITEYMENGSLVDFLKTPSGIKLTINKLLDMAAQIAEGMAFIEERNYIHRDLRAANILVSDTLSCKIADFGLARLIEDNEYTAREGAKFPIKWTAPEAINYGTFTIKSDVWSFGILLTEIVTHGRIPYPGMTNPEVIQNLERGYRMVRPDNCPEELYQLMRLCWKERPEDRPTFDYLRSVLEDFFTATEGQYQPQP
T4 sequence (P12931 whole entry): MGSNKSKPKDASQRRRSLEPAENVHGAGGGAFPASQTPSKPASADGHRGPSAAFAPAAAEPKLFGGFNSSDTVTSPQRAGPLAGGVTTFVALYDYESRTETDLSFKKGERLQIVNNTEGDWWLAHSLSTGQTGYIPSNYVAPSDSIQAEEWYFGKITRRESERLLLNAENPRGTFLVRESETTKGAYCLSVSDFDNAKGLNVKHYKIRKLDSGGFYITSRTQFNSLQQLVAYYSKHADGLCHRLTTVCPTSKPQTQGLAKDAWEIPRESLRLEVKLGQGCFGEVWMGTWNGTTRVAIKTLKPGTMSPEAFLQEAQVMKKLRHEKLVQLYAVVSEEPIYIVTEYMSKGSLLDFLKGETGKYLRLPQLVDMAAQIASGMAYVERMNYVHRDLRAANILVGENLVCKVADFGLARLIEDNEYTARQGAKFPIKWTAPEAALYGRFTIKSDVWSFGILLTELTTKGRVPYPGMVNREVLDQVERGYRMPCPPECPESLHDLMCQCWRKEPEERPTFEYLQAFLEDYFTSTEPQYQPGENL

`COCCOCCOCCOc1cc(Nc2ncc3cc(-c4cc(C(=O)Nc5cc(C(C)(C)C)cc(NS(C)(=O)=O)c5OC)ccc4C)ccc3n2)cc(OC)c1` [Example 2, N-(5-(tert-Butyl)-2-methoxy-3-(methylsulfonamido)phenyl)-3-(2-((3-methoxy-5-(2-(2-(2-methoxyethoxy)ethoxy)ethoxy)phenyl)amino)quinazolin-6-yl)-4-methylbenzamide]: the Kd at Lck was 13 nM; at p38 MAPKα [1] it was 15 nM; at Syk [2], 68 nM. In addition, the IC50 on p38 MAPKα [3] was 32 nM; at c-Src, 27 nM; against Syk [4], greater than 1250 nM; against GSK3α, greater than 12500 nM; in the data set with PBMCs [5], 26 nM; in the data set with PBMCs [6], 126 nM. Besides, the IC50 in the data set with PBMCs [7] came to 53.3 nM; in the data set with HT29 cells it was 78.7 nM. Besides, the “% Parent Remaining” value amounted to 104.2% in data set [8] (60° C., 300 min); 102.9% in [8] (60° C., 1440 min); 100% in data set [8] (time 0 min).

What is called Kd is a measure of binding affinity in units of concentration. The IC50 is the point on the concentration scale where inhibition reaches its midpoint.
